# Test results reported in patent US12226449B2, “Materials and methods for the prevention of rheumatoid arthritis” (The University of Toledo, priority 2018, dated 2025).
# “Also recorded” adds a separate entry of the source.
# Assays:
# human PBMCs [1] = test: PBMC proliferation, MTT assay; format: cell-based; conditions: purified 14-3-3ζ 300 ng/ml and 1000 ng/ml, by 8 d; PHA 1% positive control
# Experimental: Blood from healthy donors was collected as per the approved IRB protocol. The protocol for isolation of PBMCs was previously reported. In short, whole blood was diluted with an equal volume of RPMI before layering on Ficoll-Paque PLUS in a 15 mL tube. Tubes were then centrifuged for 25 minutes with the brakes off at 950 g. PBMCs were collected from the layer between the plasma and Ficoll liquid. PBMCs were then washed twice with RPMI, with 7 min spins at 350×g to pellet the cells. Finally, cells were resuspended in complete RPMI before counting and plating. […] Phytohemagglutinin (PHA) was used as a positive control. 10 μl MTT was added at a concentration of 5 mg/mL, and the plate was further incubated at 37° C. in the dark for 3 hours. Supernatant was then removed, and 100 μL DMSO was added for another hour before reading the absorbance at 570 nm using FLUOstar Omega microplate reader (BMG Labtech). For T cell differentiation, PBMCs were incubated with 1 μg/ml of 14-3-3ζ for 7 days followed by either the cellular staining for FACS analysis or ELISPOT as per manufacture's protocol.
# human PBMCs [2] = test: T cell polarization of PBMCs by flow cytometry (CD4, CD366, IL-17, CD8, CD69); format: cell-based
# Experimental: Cells were plated with 14-3-3ζ protein in a 96-well plate for 14 days at 37° C. in complete RPMI culture medium. Phytohemagglutinin (PHA) was used as a positive control. 10 μl MTT was added at a concentration of 5 mg/mL, and the plate was further incubated at 37° C. in the dark for 3 hours. Supernatant was then removed, and 100 μL DMSO was added for another hour before reading the absorbance at 570 nm using FLUOstar Omega microplate reader (BMG Labtech). For T cell differentiation, PBMCs were incubated with 1 μg/ml of 14-3-3ζ for 7 days followed by either the cellular staining for FACS analysis or ELISPOT as per manufacture's protocol. […] PBMCs incubated with 14-3-3ζ for 7 days at 37° C. were fixed in 2% paraformaldehyde for an hour, and washed with PBS. […] For surface staining, cells were stained in 50 μL PBS with 5 μl per million cells antibody for 30 minutes in the dark on ice. For intracellular staining, cells were permeabilized with Triton for 10-15 min. After staining, cells were washed with PBS and resuspended in 1 mL PBS for analysis. The following antibodies from Biolegend Inc. were used: […] Cells were sorted at FACSCanto II system (BD Biosciences) and analyzed using FlowJo software (version 10). A gate was created around an initial population of cells in the FSC-SSC plot, and this population of cells was further analyzed for CD4, CD366, and IL-17 expression. Unstained and isotype labelled cells were used as a control for setting the gates.
# human PBMCs [3] = test: ELISPOT assay of IFN-γ and IL-17 secreting cells; format: cell-based
# Experimental: Cells were plated with 14-3-3ζ protein in a 96-well plate for 14 days at 37° C. in complete RPMI culture medium. Phytohemagglutinin (PHA) was used as a positive control. 10 μl MTT was added at a concentration of 5 mg/mL, and the plate was further incubated at 37° C. in the dark for 3 hours. Supernatant was then removed, and 100 μL DMSO was added for another hour before reading the absorbance at 570 nm using FLUOstar Omega microplate reader (BMG Labtech). For T cell differentiation, PBMCs were incubated with 1 μg/ml of 14-3-3ζ for 7 days followed by either the cellular staining for FACS analysis or ELISPOT as per manufacture's protocol. For testing the effect of drugs, prednisolone, prednisone, as well as TJU103, were used at 1 μg/ml concentration and cyclophosphamide was used at 0.1 μg/ml concentration.
# The protocol was adopted from Immunospot kit from Cellular Technology Limited. In short, PBMCs incubated with 14-3-3ζ for 7 days were plated on the antibody coated ELISPOT plates. About 100,000 cells/well were added and incubated for 2 days at 37° C. followed by the developing protocol. Plates were read with a Quantihub ELISPOT plate reader and manually counted.
# human PBMCs [4] = test: ELISA of secreted (accumulated) cytokines of PBMCs; format: cell-based; conditions: PBMC in the presence of 14-3-3ζ
# Lewis rats = test: Pristane-induced arthritis (PIA) model, immunization with 14-3-3ζ in IFA; format: in vivo, rat
# Experimental: FIG. 12A depicts the process used for this example for evaluating the prevention of RA in rats. All animals were injected with 150 μl of Pristane subcutaneously at the root of the tail followed by injecting either 1 mg/kg of IFA mixed with 14-3-3ζ protein or IFA alone the next day. Additional injection of either IFA alone or mixed with 14-3-3ζ proteins were given after one week. Animals were evaluated twice every week. Each joint (20 per paw, total of 80 per animal) was scored for inflammation. Both male and female rats were equally divided (n=6-8) between IFA and 14-3-3ζ treated sets. Rats were euthanized at 43 d and blood was collected for analysis.
# Exposure to 14-3-3ζ generates a strong immune response in Lewis rats. Due to highly reproducible induction of severe inflammation and chronic arthritis, PIA is a one of the standard models to investigate rheumatoid arthritis an autoimmune disease. Intradermal injection of Pristane leads to a strong T-cell infiltration, followed by a cytokine increase as well as visual manifestation of joint inflammation, prominently observed in the Lewis rats. To test the antigenic role of 14-3-3ζ in vivo, purified 14-3-3ζ protein was injected along with IFA one day after the animals were treated with Pristane (FIG. 12A).
# The animals were immunized with either IFA alone, or mixed with 14-3-3ζ (IFA+Z, 1 mg/kg) at 1 and 7 d-post pristine injection. Animals were monitored and scored for RA.
# [5] = test system: PBMC isolated from normal Lewis rats; test: Proliferation of rat PBMC incubated ex vivo; format: cell-based; conditions: incubated with 14-3-3ζ ex vivo
# rats = test: Immunization of rats with IFA and 14-3-3ζ without pristane; format: in vivo, rat; conditions: pristane absent
# 14-3-3ζ KO rats = test: Pristane-induced arthritis in 14-3-3ζ KO rats, 14-3-3ζ immunization; format: in vivo, rat; conditions: IFA+14-3-3ζ vs IFA, days post-pristane
# Text: FIGS. 16A-16B, to determine whether 14-3-3ζ is sufficient for RA suppression, 14-3-3ζ KO rats that are more susceptible to RA were used.
# human PBMCs [6] = test: T cell polarization of PBMCs by flow cytometry (CD4, CD366, IL-17, CD8, CD69); format: cell-based; conditions: incubated with 14-3-3ζ, 3 d
# [7] = PIA treated Lewis rats immunized with 14-3-3ζ
substance,measurement,setting,value
"14-3-3ζ: human 14-3-3ζ protein, SEQ ID NO: 1, purified from E. coli; injected mixed with IFA in rats",PBMC proliferation (MTT assay),human PBMCs [1],promoted; also recorded: strong proliferation induction; also recorded: comparable and dose-dependent effect
same,CD8+ cells (total number or activation),human PBMCs [2]; 14-3-3ζ treated PBMC,No significant increase; also recorded: No change; also recorded: no significant effect
same,total number of CD4+ cells,"human PBMCs [2]; 14-3-3ζ treated PBMC, 7 d",no significant change
same,CD4 cells positive for both CD366 and IL-17 (minor population <1%),human PBMCs [2]; presence of 14-3-3ζ,unchanged
same,"CD366 or IL-17 positive CD4 cells (Th1, Th17)","human PBMCs [2]; protein 1 μg/ml, 7 d",more CD366 or IL-17 positive CD4 cells; also recorded: significant increase
same,level of IFN-γ (number of IFN-γ colonies) compared with 14-3-3ε,human PBMCs [3]; FIG. 6B and FIG. 12L,significantly more than 14-3-3ε
same,number of IFN-γ and IL-17 secreting cells,human PBMCs [3]; PBMC treated with protein for 7 d,robust response; also recorded: robust increase
same,IL-6 level,human PBMCs [4],no significant effect
same,accumulated secreted IL-17 (IL-17A),human PBMCs [4],significant increased accumulation
same,levels of IL-10 or IL-12,human PBMCs [4],no effect
same,joint inflammation / arthritis (RA) score,"Lewis rats; Lewis rats, pristane, 14-3-3ζ 1 mg/kg mixed with IFA at 1 and 7 d post pristane, compared to IFA alone, 1 mg/kg",protection against rheumatoid arthritis; also recorded: protection against the arthritis; also recorded: significantly less inflammation of joints; also recorded: significant reduction of RA scores; also recorded: absent; also recorded: relatively stronger inflammation in IFA treatment compared to 14-3-3ζ treatment; also recorded: no sign of arthritis; also recorded: prevents the development of RA
same,increase in the level of IFN-γ in the circulating sera,Lewis rats; [7],10 to 15 folds
same,increase in the level of IL-17 in the circulating sera,Lewis rats; [7],10 to 15 folds
same,increase in the level of anti-14-3-3ζ IgG in the circulating sera,Lewis rats; [7],10 to 15 folds
same,"anti-14-3-3ζ antibody level (sera, synovial fluid)",Lewis rats; compared to IFA alone,significant production of anti-14-3-3ζ IgG; also recorded: significantly higher levels; also recorded: increased 14-3-3ζ antibody levels
same,circulating (sera) IFN-γ level,Lewis rats; compared to IFA alone,significantly higher levels; also recorded: much higher levels
same,circulating IL-17 level,Lewis rats; compared to IFA alone,significantly higher levels
same,H&E stain: immune cell infiltration and tissue damage,Lewis rats; compared to IFA treated animal,lesser sign of inflammation and damage
same,rat PBMC proliferation,[5],increased proliferation
same,induction of RA pathology (pathogenicity),rats; IFA and 14-3-3ζ,no significant induction of RA pathology
same,immunogenicity: 14-3-3ζ antibody generation and IL-17 induction,rats,14-3-3ζ antibody generation and IL-17 induction
same,RA score,14-3-3ζ KO rats,suppressed the RA
same,body weight,14-3-3ζ KO rats,gain in body weights
same,CD69 expression on T cells (CD4 cells),human PBMCs [6],increases CD69 expression; also recorded: increased; also recorded: strong impact
